Key:
[1] = system: primary human fibroblasts derived from IPF patients (LL29 cells); assay: Inhibition of the fibrotic process in TGF-β1 treated IPF patient fibroblasts (αSMA staining); format: cell-based; details: Fibroblast, 96 h, LL29 cells treated with TGF-β1 (20 ng/mL), 4 days, read-out: Inhibition of fibrosis EC50
Description: The above synthesized compounds were screened using primary human fibroblasts (derived from IPF patients) treated with TGF-β1 to determine their ability to inhibit the fibrotic process.
Primary human fibroblasts derived from IPF patients (LL29 cells) [^1Xiaoqiu Liu, et. al., “Fibrotic Lung Fibroblasts Show Blunted Inhibition by cAMP Due to Deficient cAMP Response Element-Binding Protein Phosphorylation”, Journal of Pharmacology and Experimental Therapeutics (2005), 315(2), 678-687; ^2Watts, K. L., et. al., “RhoA signaling modulates cyclin D1 expression in human lung fibroblasts; implications for idiopathic pulmonary fibrosis”, Respiratory Research (2006), 7(1), 88] were obtained from American Type Culture Collection (ATCC) and expanded in F12 medium supplemented with 15% Fetal Bovine Serum and Penicillin/Streptomycin.
Each compound was dissolved in DMSO as a 10 mM stock and used to prepare compound source plates. Serial dilution (1:2, 11-point dose-response curves from 10 μM to 1.87 nM) and compound transfer was performed using the ECHO 550 (Labcyte, Sunnyvale, Calif.) into 384-well clear bottom assay plates (Greiner Bio-One) with appropriate DMSO backfill for a final DMSO concentration of 0.1%. LL29 cells were plated at 1,500 cells/well in 80 μl/well F12 medium supplemented with 1% Fetal Bovine Serum. One hour after addition of the cells, TGF-β1 (Peprotech; 20 ng/mL) was added to the plates to induce fibrosis (ref. 1 and 2 above). Wells treated with TGF-β1 and containing DMSO were used as controls. Cells were incubated at 37° C. and 5% CO2 for 4 days. Following incubation for 4 days, SYTOX green nucleic acid stain (Life Technologies [Thermo Fisher Scientific]) was added to the wells at a final concentration of 1 uM and incubated at room temperature for 30 min. Cells were then fixed using 4% formaldehyde (Electron Microscopy Sciences), washed 3 times with PBS followed by blocking and permeabilization using 3% Bovine Serum Albumin (BSA; Sigma) and 0.3% Triton X-100 (Sigma) in PBS. Cells were then stained with antibody specific to α-smooth muscle actin (αSMA; Abcam) (ref. 1 and 2 above) in 3% Bovine Serum Albumin (BSA; Sigma) and 0.3% Triton X-100 (Sigma) in PBS, and incubated overnight at 4° C. Cells were then washed 3 times with PBS, followed by incubation with Alexa Flor-647 conjugated secondary antibody (Life Technologies [Thermo Fisher Scientific]) and DAPI at room temperature for 1 hour. Cells were then washed 3 times with PBS and plates were sealed for imaging. αSMA staining was imaged by excitation at 630 nm and emission at 665 nm and quantified using the Compartmental Analysis program on the CellInsight CX5 (Thermo Scientific). Dead or apoptotic cells were excluded from analysis based on positive SYTOX green staining. % of total cells positive for αSMA were counted in each well and normalized to the average of 11 wells treated with TGF-β1 on the same plate using Dotmatics' Studies Software. The normalized averages (fold change over untreated) of 3 replicate wells for each compound concentration were used to create dose-responses curves and EC50 values were calculated using non-linear regression curve fit in the Dotmatics' Studies Software. The EC50 values are reported.

[2] = system: Wnt activity (SW480 colon carcinoma cells stably expressing the Sp5-Luc reporter gene); assay: Sp5-Luc reporter gene screening assay for Wnt activity; format: cell-based; details: Homo sapiens
How it was run: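 The SW480 cells carry a lentiviral luciferase reporter driven by a Sp5 promoter with eight TCF/LEF sites. They were plated at 10,000 cells/well in 10% FCS overnight, then pinned with 50 nl of 3-fold dilutions (10 mM top source concentration) into 50 μl.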

SMILES	EC50 [1]	IC50 [2]
Fc1cccc(-c2ccnc3[nH]c(-c4n[nH]c5ncc(-c6ccccn6)cc45)nc23)c1 [Compound 925, 3-(7-(3-Fluorophenyl)-3H-imidazo[4,5-b]pyridin-2-yl)-5-(pyridin-2-yl)-1H-pyrazolo[3,4-b]pyridine]	≥ 9990 nM	> 10000 nM
Cc1cn(-c2ccnc3[nH]c(-c4n[nH]c5ncc(-c6cncc(NC(=O)C(C)(C)C)c6)cc45)nc23)cn1 [Compound 165, N-(5-(3-(7-(4-Methyl-1H-imidazol-1-yl)-3H-imidazo[4,5-b]pyridin-2-yl)-1H-pyrazolo[3,4-b]pyridin-5-yl)pyridin-3-yl)pivalamide]	≥ 9990 nM	> 10000 nM
O=C(Nc1cncc(-c2cnc3[nH]nc(-c4nc5c(N6CCCCC6)ccnc5[nH]4)c3c2)c1)C1CC1 [Compound 151, N-(5-(3-(7-(Piperidin-1-yl)-3H-imidazo[4,5-b]pyridin-2-yl)-1H-pyrazolo[3,4-b]pyridin-5-yl)pyridin-3-yl)cyclopropanecarboxamide]	414 nM	247 nM
c1cncc(-c2cnc3[nH]nc(-c4nc5cccnc5[nH]4)c3c2)c1 [Compound 212, 3-(3H-Imidazo[4,5-b]pyridin-2-yl)-5-(pyridin-3-yl)-1H-pyrazolo[3,4-b]pyridine]	501 nM	214 nM
Cc1ccncc1-c1cnc2[nH]nc(-c3nc4c(-c5ccsc5)ccnc4[nH]3)c2c1 [Compound 237, 5-(4-Methylpyridin-3-yl)-3-(7-(thiophen-3-yl)-3H-imidazo[4,5-b]pyridin-2-yl)-1H-pyrazolo[3,4-b]pyridine]	282 nM	21.6 nM
O=C(Nc1cncc(-c2cnc3[nH]nc(-c4nc5c(-c6ccsc6)ccnc5[nH]4)c3c2)c1)c1ccccc1 [Compound 243, N-(5-(3-(7-(Thiophen-3-yl)-3H-imidazo[4,5-b]pyridin-2-yl)-1H-pyrazolo[3,4-b]pyridin-5-yl)pyridin-3-yl)benzamide]	113 nM	33 nM
COc1cncc(-c2cnc3[nH]nc(-c4nc5c(-c6cccc(F)c6)ccnc5[nH]4)c3c2)c1 [Compound 920, 3-(7-(3-Fluorophenyl)-3H-imidazo[4,5-b]pyridin-2-yl)-5-(5-methoxypyridin-3-yl)-1H-pyrazolo[3,4-b]pyridine]	≤ 9 nM	1050 nM
CN1CCN(c2ccnc3[nH]c(-c4n[nH]c5ncc(-c6cncc(CN7CCCCC7)c6)cc45)nc23)CC1 [Compound 198, 3-(7-(4-Methylpiperazin-1-yl)-3H-imidazo[4,5-b]pyridin-2-yl)-5-(5-(piperidin-1-ylmethyl)pyridin-3-yl)-1H-pyrazolo[3,4-b]pyridine]	3040 nM	> 10000 nM
Cc1cn(-c2ccnc3[nH]c(-c4n[nH]c5ncc(-c6cncc(CN7CCCC7)c6)cc45)nc23)cn1 [Compound 171, 3-(7-(4-Methyl-1H-imidazol-1-yl)-3H-imidazo[4,5-b]pyridin-2-yl)-5-(5-(pyrrolidin-1-ylmethyl)pyridin-3-yl)-1H-pyrazolo[3,4-b]pyridine]	≤ 9 nM	276 nM
Cc1ccncc1-c1cnc2[nH]nc(-c3nc4c(-c5ccncc5)ccnc4[nH]3)c2c1 [Compound 91, 5-(4-Methylpyridin-3-yl)-3-(7-(pyridin-4-yl)-3H-imidazo[4,5-b]pyridin-2-yl)-1H-pyrazolo[3,4-b]pyridine]	≥ 9990 nM	> 10000 nM
Fc1cccc(-c2ccnc3[nH]c(-c4n[nH]c5ncc(-c6cncc(OC7CCNCC7)c6)cc45)nc23)c1 [Compound 916, 3-(7-(3-Fluorophenyl)-3H-imidazo[4,5-b]pyridin-2-yl)-5-(5-(piperidin-4-yloxy)pyridin-3-yl)-1H-pyrazolo[3,4-b]pyridine]	≤ 9 nM	> 10000 nM
CN1CCN(c2ccnc3[nH]c(-c4n[nH]c5ncc(-c6cncc(N)c6)cc45)nc23)CC1 [Compound 186, 5-(3-(7-(4-Methylpiperazin-1-yl)-3H-imidazo[4,5-b]pyridin-2-yl)-1H-pyrazolo[3,4-b]pyridin-5-yl)pyridin-3-amine]	≥ 9990 nM	> 10000 nM
CC(C)C(=O)Nc1cncc(-c2cnc3[nH]nc(-c4nc5c(N6CCN(C)CC6)ccnc5[nH]4)c3c2)c1 [Compound 192, N-(5-(3-(7-(4-Methylpiperazin-1-yl)-3H-imidazo[4,5-b]pyridin-2-yl)-1H-pyrazolo[3,4-b]pyridin-5-yl)pyridin-3-yl)isobutyramide]	≤ 9 nM	> 10000 nM
CN(C)Cc1cncc(-c2cnc3[nH]nc(-c4nc5c(N6CCCCC6)ccnc5[nH]4)c3c2)c1 [Compound 145, N,N-Dimethyl-1-(5-(3-(7-(piperidin-1-yl)-3H-imidazo[4,5-b]pyridin-2-yl)-1H-pyrazolo[3,4-b]pyridin-5-yl)pyridin-3-yl)methanamine]	1440 nM	2800 nM
c1cncc(-c2cnc3[nH]nc(-c4nc5c(-c6cccnc6)ccnc5[nH]4)c3c2)c1 [Compound 68, 5-(Pyridin-3-yl)-3-(7-(pyridin-3-yl)-3H-imidazo[4,5-b]pyridin-2-yl)-1H-pyrazolo[3,4-b]pyridine]	≥ 9990 nM	> 10000 nM
CC(C)(C)C(=O)Nc1cncc(-c2cnc3[nH]nc(-c4nc5c(-c6ccc(F)cc6)ccnc5[nH]4)c3c2)c1 [Compound 28, N-(5-(3-(7-(4-Fluorophenyl)-3H-imidazo[4,5-b]pyridin-2-yl)-1H-pyrazolo[3,4-b]pyridin-5-yl)pyridin-3-yl)pivalamide]	26 nM	42.3 nM
FC1(F)CCN(Cc2cncc(-c3cnc4[nH]nc(-c5nc6c(N7CCCCC7)ccnc6[nH]5)c4c3)c2)C1 [Compound 157, 5-(5-((3,3-Difluoropyrrolidin-1-yl)methyl)pyridin-3-yl)-3-(7-(piperidin-1-yl)-3H-imidazo[4,5-b]pyridin-2-yl)-1H-pyrazolo[3,4-b]pyridine]	≤ 9 nM	4210 nM
